From the SangsterLogP compilation

Compound | logP
CCCCCCCCCCOc1ccccc1NC(=O)OCCN(C)C | 3.82
CCCCCOc1ccc(NC(=O)OCCN(C)C)cc1 | 2.11
CCCOc1ccc(NC(=O)OCCN(C)C)cc1 | 1.41
CCCCCOc1ccccc1NC(=O)OCCN(C)C | 1.83
CCCCOc1ccc(NC(=O)OCCN(C)C)cc1 | 1.77
COc1ccccc1NC(=O)OCCN(C)C | 1.15
COc1ccc(NC(=O)OCCN(C)C)cc1 | 0.97
CCCCCCCOc1ccc(NC(=O)OCCN(C)C)cc1 | 2.93
CCOc1cccc(NC(=O)OCCN(C)C)c1 | 0.8
CCCCCCOc1ccc(NC(=O)OCCN(C)C)cc1 | 2.47
CCCCOc1ccccc1NC(=O)OCCN(C)C | 1.5

The remaining lines, values ahead:

logP | Compound
1.72 | CCCCCOc1cccc(NC(=O)OCCN(C)C)c1
2.01 | CCCCCCOc1cccc(NC(=O)OCCN(C)C)c1
2.87 | CCCCCCCCOc1cccc(NC(=O)OCCN(C)C)c1
4.02 | CCCCCCCCCCOc1ccc(NC(=O)OCCN(C)C)cc1
3.26 | CCCCCCCCOc1ccc(NC(=O)OCCN(C)C)cc1
3.35 | CCCCCCCCCOc1ccccc1NC(=O)OCCN(C)C
1.14 | CCOc1ccc(NC(=O)OCCN(C)C)cc1
3.21 | CCCCCCCCCOc1cccc(NC(=O)OCCN(C)C)c1
2.98 | CCCCCCCCOc1ccccc1NC(=O)OCCN(C)C
1.35 | CCCCOc1cccc(NC(=O)OCCN(C)C)c1
2.5 | CCCCCCCOc1ccccc1NC(=O)OCCN(C)C
2.43 | CCCCCCCOc1cccc(NC(=O)OCCN(C)C)c1
2.13 | CCCCCCOc1ccccc1NC(=O)OCCN(C)C
1.24 | CCCOc1ccccc1NC(=O)OCCN(C)C
1.04 | CCCOc1cccc(NC(=O)OCCN(C)C)c1
1.15 | CCOc1ccccc1NC(=O)OCCN(C)C
